Where “and” joins values, the source holds several entries; their conditions need not be identical. Identical values can stand only once. Like-named read-outs stand apart in the source and are kept apart here.
How the values were obtained:
[1] = Liver S9 stability and metabolite formation; type: in vitro ADME, rat, dog, monkey and human; settings: presence and absence of NADPH, cross species
Method: The stability (whole blood, liver S9, SGF, SIF, and PBS buffer) and MDCK-MDR1 monolayer permeability of LB100, LB-100 Carbonate and LB-100 POM were evaluated.
Samples were analyzed by LC-MS/MS using a SCIEX QTrap 5500 mass spectrometer coupled with an Agilent 1290 HPLC Infinity series, a CTC PAL chilled autosampler, all controlled by Analyst software. After separation on a C18 reverse phase HPLC column (Acquity UPLC HSS T3, 1.8, 2.1×50 mm) using an acetonitrile-water gradient system, peaks were analyzed by mass spectrometry (MS) using […] ionization in MRM mode.
Experimental Procedure: Test agent is incubated in duplicate with liver S9 at 37° C. The reaction contains liver S9 protein in 100 mM potassium phosphate, 2 mM NADPH, 3 mM MgCl2, pH 7.4. A control is run for each test agent omitting NADPH to detect NADPH-free degradation. At indicated times, an aliquot is removed from each experimental and control reaction and mixed with an equal volume of ice-cold Stop Solution (methanol, containing internal standard propranolol). Stopped reactions are incubated for 10 minutes at −20° C. Samples are centrifuged to remove precipitated protein, and supernatants are analyzed by LC/MS/MS to quantitate remaining parent and the formation of metabolites. Data are reported as % remaining by dividing by the time zero concentration value.

[2] = Pharmacokinetic study of 151 (iv, oral) in SD rats: 151 and 100 in plasma; type: in vivo; settings: for Vd: read-out: Vss of 151
Method: The absolute bioavailability was evaluated.
To each sample, 160 μL of acetonitrile were added.
The mass spectrometer was operated in the positive mode.
Quantification was achieved by the external standard method.
Calibration Curve for Plasma Samples
LB100 concentrations of the LB151 plasma samples were also measured and pharmacokinetic parameters were calculated.

[3] = 151 IV 1.0 mg/kg, SD rats, individual rats, 1 mg/kg

Q: Which “metabolites observed in liver S9 stability study” value [1] does the source give for `COC(=O)C1C2CCC(O2)C1C(=O)N1CCN(C)CC1` (stereo not shown) [Compound 151] here?
A: The value was “No metabolites were observed”.

Q: And the 151 plasma concentration ([2]; 151 IV 1.0 mg/kg, SD rats, 0.083 h, individual rats, 1 mg/kg)?
A: The 151 plasma concentration was 1301 ng/mL.

Q: And the 151 plasma concentration ([2]; 151 IV 1.0 mg/kg, SD rats, 0.250 h, individual rats, 1 mg/kg)?
A: The 151 plasma concentration was 949 ng/mL.

Q: What about the 151 plasma concentration ([2]; 151 IV 1.0 mg/kg, SD rats, 0.50 h, individual rats, 1 mg/kg) of the same compound?
A: Its 151 plasma concentration is 607 ng/mL.

Q: And the 151 plasma concentration ([2]; 151 IV 1.0 mg/kg, SD rats, 1.0 h, individual rats, 1 mg/kg)?
A: The 151 plasma concentration was 314 ng/mL.

Q: And the 151 plasma concentration ([2]; 151 IV 1.0 mg/kg, SD rats, 2.0 h, individual rats, 1 mg/kg)?
A: Its 151 plasma concentration is 103 ng/mL.

Q: And the 151 plasma concentration ([2]; 151 IV 1.0 mg/kg, SD rats, 3.0 h, individual rats, 1 mg/kg)?
A: The 151 plasma concentration was 28.1 ng/mL.

Q: What about the 151 plasma concentration ([2]; 151 IV 1.0 mg/kg, SD rats, 5.0 h, individual rats, 1 mg/kg) of the same compound?
A: The 151 plasma concentration was 9.75 ng/mL and 3.63 ng/mL.

Q: What about the 151 plasma concentration ([2]; 151 IV 1.0 mg/kg, SD rats, 7.0 h, individual rats, 1 mg/kg) of the same compound?
A: Its 151 plasma concentration is 12.2 ng/mL and 1.83 ng/mL.

Q: What about the 151 plasma concentration ([2]; 151 IV 1.0 mg/kg, SD rats, 9.0 h, individual rats, 1 mg/kg) of the same compound?
A: The 151 plasma concentration was “BLQ”.

Q: And the 151 plasma concentration ([2]; 151 IV 1.0 mg/kg, SD rats, 24 h, individual rats)?
A: Its 151 plasma concentration is “BLQ”.

Q: And the “CL of 151” value [2, 3]?
A: Its value is 15.9 mL/min/kg.

Q: What about the “Vss of 151” value [2, 3] of the same compound?
A: The value was 0.775 L/kg.

Q: And the “F of 151” value ([2]; 151 PO 10 mg/kg vs IV 1.0 mg/kg, SD rats, mean, based on AUC0-∞)?
A: Its value is 54.6%.

Q: What about the 151 plasma concentration ([2]; 151 PO 10 mg/kg, SD rats, 0.25 h, individual rats, 10 mg/kg) of the same compound?
A: The 151 plasma concentration was 2029 ng/mL and 2731 ng/mL.

Q: And the 151 plasma concentration ([2]; 151 PO 10 mg/kg, SD rats, 0.50 h, individual rats, 10 mg/kg)?
A: The 151 plasma concentration was 3934 ng/mL and 3343 ng/mL.

Q: And the 151 plasma concentration ([2]; 151 PO 10 mg/kg, SD rats, 1.0 h, individual rats, 10 mg/kg)?
A: Its 151 plasma concentration is 2581 ng/mL and 2538 ng/mL.

Q: What about the 151 plasma concentration ([2]; 151 PO 10 mg/kg, SD rats, 2.0 h, individual rats, 10 mg/kg) of the same compound?
A: The 151 plasma concentration was 1237 ng/mL and 1582 ng/mL.

Q: And the 151 plasma concentration ([2]; 151 PO 10 mg/kg, SD rats, 3.0 h, individual rats, 10 mg/kg)?
A: The 151 plasma concentration was 660 ng/mL and 794 ng/mL.

Q: And the 151 plasma concentration ([2]; 151 PO 10 mg/kg, SD rats, 5.0 h, individual rats, 10 mg/kg)?
A: The 151 plasma concentration was 99.4 ng/mL and 192 ng/mL.

Q: And the 151 plasma concentration ([2]; 151 PO 10 mg/kg, SD rats, 7.0 h, individual rats, 10 mg/kg)?
A: Its 151 plasma concentration is 42.6 ng/mL and 20.7 ng/mL and 68.0 ng/mL.

Q: What about the 151 plasma concentration ([2]; 151 PO 10 mg/kg, SD rats, 9.0 h, individual rats, 10 mg/kg) of the same compound?
A: The 151 plasma concentration was 38.2 ng/mL and 66.1 ng/mL.

Q: What about the 151 plasma concentration ([2]; 151 PO 10 mg/kg, SD rats, 24 h, individual rats) of the same compound?
A: Its 151 plasma concentration is “BLQ”.

Q: And the “time of peak plasma concentration” value ([2]; 151 oral 10 mg/kg, SD rats (n=3))?
A: The value was 0.5 h.

Q: What about the concentration at 0.083 h ([2]; male, Sprague-Dawley, rat, in vivo, iv, 1 mg/kg, 151 IV 1.0 mg/kg, SD rats, 0.083 h, individual rats) of the same compound?
A: Its concentration at 0.083 h is 1680 ng/mL.

Q: What about the concentration at 0.083 h ([2]; male, Sprague-Dawley, rat, in vivo, iv, 1 mg/kg, 151 IV 1.0 mg/kg, SD rats, 0.083 h, mean) of the same compound?
A: Its concentration at 0.083 h is 1490 ng/mL.

Q: What about the concentration at 0.25 h ([2]; male, Sprague-Dawley, rat, in vivo, iv, 1 mg/kg, 151 IV 1.0 mg/kg, SD rats, 0.250 h, individual rats) of the same compound?
A: Its concentration at 0.25 h is 1160 ng/mL.

Q: And the concentration at 0.25 h ([2]; male, Sprague-Dawley, rat, in vivo, iv, 1 mg/kg, 151 IV 1.0 mg/kg, SD rats, 0.250 h, mean)?
A: Its concentration at 0.25 h is 1060 ng/mL.

Q: What about the concentration at 0.5 h ([2]; male, Sprague-Dawley, rat, in vivo, iv, 1 mg/kg, 151 IV 1.0 mg/kg, SD rats, 0.50 h, individual rats) of the same compound?
A: The concentration at 0.5 h was 760 ng/mL.

Q: What about the concentration at 0.5 h ([2]; male, Sprague-Dawley, rat, in vivo, iv, 1 mg/kg, 151 IV 1.0 mg/kg, SD rats, 0.50 h, mean) of the same compound?
A: Its concentration at 0.5 h is 683 ng/mL.

Q: And the concentration at 1 h ([2]; male, Sprague-Dawley, rat, in vivo, iv, 1 mg/kg, 151 IV 1.0 mg/kg, SD rats, 1.0 h, individual rats)?
A: Its concentration at 1 h is 381 ng/mL.

Q: And the concentration at 1 h ([2]; male, Sprague-Dawley, rat, in vivo, iv, 1 mg/kg, 151 IV 1.0 mg/kg, SD rats, 1.0 h, mean)?
A: Its concentration at 1 h is 348 ng/mL.

Q: What about the concentration at 2 h ([2]; male, Sprague-Dawley, rat, in vivo, iv, 1 mg/kg, 151 IV 1.0 mg/kg, SD rats, 2.0 h, individual rats) of the same compound?
A: The concentration at 2 h was 95.8 ng/mL.

Q: And the concentration at 2 h ([2]; male, Sprague-Dawley, rat, in vivo, iv, 1 mg/kg, 151 IV 1.0 mg/kg, SD rats, 2.0 h, mean)?
A: Its concentration at 2 h is 99.6 ng/mL.

Q: And the concentration at 3 h ([2]; male, Sprague-Dawley, rat, in vivo, iv, 1 mg/kg, 151 IV 1.0 mg/kg, SD rats, 3.0 h, individual rats)?
A: The concentration at 3 h was 39.6 ng/mL.

Q: And the concentration at 3 h ([2]; male, Sprague-Dawley, rat, in vivo, iv, 1 mg/kg, 151 IV 1.0 mg/kg, SD rats, 3.0 h, mean)?
A: The concentration at 3 h was 33.8 ng/mL.

Q: What about the concentration at 5 h ([2]; male, Sprague-Dawley, rat, in vivo, iv, 1 mg/kg, 151 IV 1.0 mg/kg, SD rats, 5.0 h, mean) of the same compound?
A: The concentration at 5 h was 6.69 ng/mL.

Q: And the concentration at 7 h ([2]; male, Sprague-Dawley, rat, in vivo, iv, 1 mg/kg, 151 IV 1.0 mg/kg, SD rats, 7.0 h, mean)?
A: The concentration at 7 h was 7.02 ng/mL.

Q: What about the concentration at 9 h ([2]; male, Sprague-Dawley, rat, in vivo, iv, 1 mg/kg, 151 IV 1.0 mg/kg, SD rats, 9.0 h, individual rats) of the same compound?
A: Its concentration at 9 h is 2.01 ng/mL.

Q: And the concentration at 9 h ([2]; male, Sprague-Dawley, rat, in vivo, iv, 1 mg/kg, 151 IV 1.0 mg/kg, SD rats, 9.0 h, mean)?
A: The concentration at 9 h was 1 ng/mL.

Q: And the clearance ([2]; male, Sprague-Dawley, rat, in vivo, iv, 1 mg/kg, 151 IV 1.0 mg/kg, SD rats, individual rats, read-out: CL of 151 (converted))?
A: Its clearance is 12.7 mL/min/kg.

Q: And the Vd ([2]; male, Sprague-Dawley, rat, in vivo, iv, 1 mg/kg, 151 IV 1.0 mg/kg, SD rats, individual rats)?
A: The Vd was 0.696 L/kg.

Q: And the clearance ([2]; male, Sprague-Dawley, rat, in vivo, iv, 1 mg/kg, 151 IV 1.0 mg/kg, SD rats, mean, read-out: CL of 151 (converted))?
A: Its clearance is 14.3 mL/min/kg.

Q: What about the Vd ([2]; male, Sprague-Dawley, rat, in vivo, iv, 1 mg/kg, 151 IV 1.0 mg/kg, SD rats, mean) of the same compound?
A: Its Vd is 0.736 L/kg.

Q: And the half-life ([2]; male, Sprague-Dawley, rat, in vivo, iv, 1 mg/kg, 151 iv 1.0 mg/kg (n=2), read-out: elimination half-life (converted))?
A: The half-life was 53.4 min.

Q: What about the clearance ([2]; male, Sprague-Dawley, rat, in vivo, iv, 1 mg/kg, 151 iv 1.0 mg/kg (n=2), read-out: mean clearance from rat plasma (converted)) of the same compound?
A: Its clearance is 14.3 mL/min/kg.

Reference: patent US11236102B2, “Oxabicycloheptane prodrugs” (Lixte Biotechnology, Inc., priority 2015, dated 2022)
